“And” between values parts separate entries of the source, which are not always exact repeats. Equal entries are not always repeated. Structures can show the parent of a compound that is named as a salt.
How the values were obtained:
[1] = system: rat; experiment: animal or person; type: in vivo; settings: for ED50: Rattus norvegicus, 0.25 h, read-out: ED50 (95% CI) second pharmacologically active ingredient
[2] = system: male Sprague-Dawley rats; settings: rat, in vivo

SMILES: CC[C@@H](C(N)=O)N1CCCC1=O [Levetiracetam, levetiracetam]
- ED50 ([1]; ip): 986 mg/kg
- timepoint of peak effect ([1]; rat, in vivo): 15 min p. appl.

SMILES: NC(=O)N1c2ccccc2C=Cc2ccccc21 [carbamazepine]
- ED50 ([1]; ip): 30 mg/kg
- timepoint of peak effect ([1]; rat, in vivo): 15 min p. appl.

SMILES: COC[C@@H](NC(C)=O)C(=O)NCc1ccccc1 [lacosamide]
- ED50 ([1]; ip): 35.3 mg/kg
- timepoint of peak effect ([1]; rat, in vivo): 15 min p. appl.

SMILES: Nc1nnc(-c2cccc(Cl)c2Cl)c(N)n1 [lamotrigine]
- ED50 ([1]; ip): 30 mg/kg
- timepoint of peak effect ([1]; rat, in vivo): 15 min p. appl.
- ED50 (95% CI) second pharmacologically active ingredient ([1]; rat, in vivo, ip): 35253 μg/kg and 35253 (38082-32740) μg/kg

SMILES: CCOC(=O)Nc1ccc(NCc2ccc(F)cc2)cc1N [retigabine dihydrochloride]
- ED50 ([1]; ip): 5.09 mg/kg
- timepoint of peak effect ([1]; rat, in vivo): 15 min p. appl.
- % MPE (Maximum possible effect) 60 min. [2]: −2.0 ± 7.9 % MPE
- % MPE (Maximum possible effect) 180 min. [2]: −2.8 ± 8.0 % MPE
- % MPE (Maximum possible effect) 30 min. ([2]; dihydrochloride): 23.1 % MPE and 23.1 ± 5.0 % MPE

From patent US20130317009A1 (priority 2012, published 2013)
